Laboratory results reported in the NIST ThermoML archive (doi:10.1016/j.jct.2016.01.017).
± gives the expanded uncertainty stated by the source.

Experiment: activity coefficient (dimensionless); of the first substance listed, at infinite dilution; xn = mol fraction of the nth substance listed
Conditions: 100 kPa, Liquid, Chromatography, x1 = 0

Compound | activity coefficient (308.15 K) | activity coefficient (318.15 K) | activity coefficient (328.15 K) | activity coefficient (338.15 K) | activity coefficient (348.15 K) | activity coefficient (358.15 K) | activity coefficient (368.15 K)
CCOC(C)(C)C [2-ethoxy-2-methylpropane] + CCCC[n+]1ccc(C#N)cc1.O=S(=O)([N-]S(=O)(=O)C(F)(F)F)C(F)(F)F | 8.97 ± 0.77 | 8.89 ± 0.77 | 8.84 ± 0.76 | 8.8 ± 0.76 | 8.78 ± 0.76 | 8.73 ± 0.75 | 8.68 ± 0.75
CCC(C)(C)OC [2-methoxy-2-methylbutane] + CCCC[n+]1ccc(C#N)cc1.O=S(=O)([N-]S(=O)(=O)C(F)(F)F)C(F)(F)F | 4.33 ± 0.37 | 4.48 ± 0.39 | 4.62 ± 0.4 | 4.76 ± 0.41 | 4.88 ± 0.42 | 5.01 ± 0.43 | 5.13 ± 0.44
COC(C)(C)C [2-methoxy-2-methylpropane] + CCCC[n+]1ccc(C#N)cc1.O=S(=O)([N-]S(=O)(=O)C(F)(F)F)C(F)(F)F | 3.01 ± 0.26 | 3.13 ± 0.27 | 3.24 ± 0.28 | 3.35 ± 0.29 | 3.45 ± 0.3 | 3.56 ± 0.31 | 3.66 ± 0.32
CC(C)CO [2-methyl-1-propanol] + CCCC[n+]1ccc(C#N)cc1.O=S(=O)([N-]S(=O)(=O)C(F)(F)F)C(F)(F)F | 3.2 ± 0.28 | 2.93 ± 0.25 | 2.7 ± 0.23 | 2.5 ± 0.22 | 2.32 ± 0.2 | 2.18 ± 0.19 | 2.04 ± 0.18
CC(C)(C)O [2-methylpropan-2-ol] + CCCC[n+]1ccc(C#N)cc1.O=S(=O)([N-]S(=O)(=O)C(F)(F)F)C(F)(F)F | 2.28 ± 0.2 | 2.14 ± 0.18 | 2.01 ± 0.17 | 1.9 ± 0.16 | 1.8 ± 0.15 | 1.71 ± 0.15 | 1.63 ± 0.14
CCC(C)CC [3-methylpentane] + CCCC[n+]1ccc(C#N)cc1.O=S(=O)([N-]S(=O)(=O)C(F)(F)F)C(F)(F)F | 30.7 ± 2.7 | 28.4 ± 2.5 | 26.4 ± 2.3 | 24.7 ± 2.1 | 23.1 ± 2 | 21.7 ± 1.9 | 20.6 ± 1.8
C=C(C)c1ccccc1 [(1-methylethenyl)benzene] + CCCC[n+]1ccc(C#N)cc1.O=S(=O)([N-]S(=O)(=O)C(F)(F)F)C(F)(F)F | 1.94 ± 0.17 | 2.09 ± 0.18 | 2.24 ± 0.19 | 2.4 ± 0.21 | 2.55 ± 0.22 | 2.7 ± 0.23 | 2.86 ± 0.25
CC(C)=O [acetone] + CCCC[n+]1ccc(C#N)cc1.O=S(=O)([N-]S(=O)(=O)C(F)(F)F)C(F)(F)F | 0.377 ± 0.039 | 0.403 ± 0.04 | 0.427 ± 0.042 | 0.453 ± 0.043 | 0.479 ± 0.045 | 0.505 ± 0.046 | 0.531 ± 0.048
CC#N [acetonitrile] + CCCC[n+]1ccc(C#N)cc1.O=S(=O)([N-]S(=O)(=O)C(F)(F)F)C(F)(F)F | 0.432 ± 0.042 | 0.449 ± 0.043 | 0.466 ± 0.044 | 0.483 ± 0.045 | 0.5 ± 0.046 | 0.516 ± 0.047 | 0.531 ± 0.048
c1ccccc1 [benzene] + CCCC[n+]1ccc(C#N)cc1.O=S(=O)([N-]S(=O)(=O)C(F)(F)F)C(F)(F)F | 1.07 ± 0.09 | 1.12 ± 0.09 | 1.17 ± 0.1 | 1.22 ± 0.1 | 1.28 ± 0.11 | 1.32 ± 0.11 | 1.38 ± 0.12
CCCCO [butan-1-ol] + CCCC[n+]1ccc(C#N)cc1.O=S(=O)([N-]S(=O)(=O)C(F)(F)F)C(F)(F)F | 3.19 ± 0.28 | 2.94 ± 0.25 | 2.74 ± 0.24 | 2.56 ± 0.22 | 2.41 ± 0.21 | 2.28 ± 0.2 | 2.15 ± 0.19
CCC(C)O (stereo not drawn) [butan-2-ol] + CCCC[n+]1ccc(C#N)cc1.O=S(=O)([N-]S(=O)(=O)C(F)(F)F)C(F)(F)F | 2.69 ± 0.23 | 2.5 ± 0.2 | 2.33 ± 0.2 | 2.18 ± 0.19 | 2.06 ± 0.18 | 1.94 ± 0.17 | 1.84 ± 0.16
CCCC=O [butanal] + CCCC[n+]1ccc(C#N)cc1.O=S(=O)([N-]S(=O)(=O)C(F)(F)F)C(F)(F)F | 0.7 ± 0.06 | 0.738 ± 0.062 | 0.773 ± 0.065 | 0.811 ± 0.068 | 0.848 ± 0.071 | 0.884 ± 0.073 | 0.917 ± 0.076
C1CCCCCC1 [cycloheptane] + CCCC[n+]1ccc(C#N)cc1.O=S(=O)([N-]S(=O)(=O)C(F)(F)F)C(F)(F)F | 22.3 ± 1.9 | 20.6 ± 1.8 | 19.1 ± 1.7 | 17.8 ± 1.5 | 16.7 ± 1.4 | 15.6 ± 1.3 | 14.8 ± 1.3
